According to patent US10160755B2 (Plexxikon Inc., priority 2015, dated 2018):

Legend:
[1] = biological target: T1, FLT3-ITD (Homo sapiens, UniProt P36888); experiment: FLT3-ITD biochemical kinase assay (AlphaScreen)
T1 construct: FLT3-ITD; Invitrogen #PV6190
T1 sequence (P36888 1-993): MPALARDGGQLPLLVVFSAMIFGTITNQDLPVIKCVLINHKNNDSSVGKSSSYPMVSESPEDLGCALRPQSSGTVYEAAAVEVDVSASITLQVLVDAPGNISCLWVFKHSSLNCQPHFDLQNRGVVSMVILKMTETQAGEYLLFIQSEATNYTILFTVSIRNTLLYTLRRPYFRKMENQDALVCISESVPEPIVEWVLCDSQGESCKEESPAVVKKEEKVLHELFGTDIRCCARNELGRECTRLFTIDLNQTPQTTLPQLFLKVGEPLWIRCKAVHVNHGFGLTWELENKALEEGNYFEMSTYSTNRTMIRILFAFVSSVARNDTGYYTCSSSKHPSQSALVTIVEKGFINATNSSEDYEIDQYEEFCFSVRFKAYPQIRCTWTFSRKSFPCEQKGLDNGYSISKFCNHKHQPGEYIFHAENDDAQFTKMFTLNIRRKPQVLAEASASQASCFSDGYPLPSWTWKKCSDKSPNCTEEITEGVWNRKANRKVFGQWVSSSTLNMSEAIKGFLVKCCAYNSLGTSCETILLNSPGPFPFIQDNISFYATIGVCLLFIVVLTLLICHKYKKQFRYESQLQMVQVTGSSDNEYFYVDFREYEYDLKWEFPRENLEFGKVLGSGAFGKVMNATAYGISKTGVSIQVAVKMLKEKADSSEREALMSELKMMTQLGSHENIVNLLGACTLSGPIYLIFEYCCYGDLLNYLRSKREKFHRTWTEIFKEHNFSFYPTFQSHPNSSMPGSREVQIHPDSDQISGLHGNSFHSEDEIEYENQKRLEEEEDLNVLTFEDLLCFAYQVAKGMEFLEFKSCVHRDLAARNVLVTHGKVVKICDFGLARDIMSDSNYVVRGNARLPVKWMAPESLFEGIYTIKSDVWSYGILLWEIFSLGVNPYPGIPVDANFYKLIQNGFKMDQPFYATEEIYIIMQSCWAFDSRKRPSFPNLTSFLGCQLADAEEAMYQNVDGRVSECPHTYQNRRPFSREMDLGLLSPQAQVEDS
In short: (§1)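 Recombinant FLT3 mutant kinases phosphorylate biotin-poly(Glu4-Tyr) peptide (30 nM) at 10 μM ATP for D835Y or 100 μM for ITD. Phosphorylation detected by AlphaScreen: streptavidin donor beads (20 min) then anti-phosphotyrosine PY20 acceptor beads (60 min, RT), signal at 580 nm; inhibition lowers signal.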

[2] = biological target: T2, FLT3-D835Y (Homo sapiens, UniProt P36888, D835Y); experiment: FLT3-D835Y biochemical kinase assay (AlphaScreen)
T2 construct: purchased Invitrogen PV3967
T2 sequence (P36888 27-993 D835Y): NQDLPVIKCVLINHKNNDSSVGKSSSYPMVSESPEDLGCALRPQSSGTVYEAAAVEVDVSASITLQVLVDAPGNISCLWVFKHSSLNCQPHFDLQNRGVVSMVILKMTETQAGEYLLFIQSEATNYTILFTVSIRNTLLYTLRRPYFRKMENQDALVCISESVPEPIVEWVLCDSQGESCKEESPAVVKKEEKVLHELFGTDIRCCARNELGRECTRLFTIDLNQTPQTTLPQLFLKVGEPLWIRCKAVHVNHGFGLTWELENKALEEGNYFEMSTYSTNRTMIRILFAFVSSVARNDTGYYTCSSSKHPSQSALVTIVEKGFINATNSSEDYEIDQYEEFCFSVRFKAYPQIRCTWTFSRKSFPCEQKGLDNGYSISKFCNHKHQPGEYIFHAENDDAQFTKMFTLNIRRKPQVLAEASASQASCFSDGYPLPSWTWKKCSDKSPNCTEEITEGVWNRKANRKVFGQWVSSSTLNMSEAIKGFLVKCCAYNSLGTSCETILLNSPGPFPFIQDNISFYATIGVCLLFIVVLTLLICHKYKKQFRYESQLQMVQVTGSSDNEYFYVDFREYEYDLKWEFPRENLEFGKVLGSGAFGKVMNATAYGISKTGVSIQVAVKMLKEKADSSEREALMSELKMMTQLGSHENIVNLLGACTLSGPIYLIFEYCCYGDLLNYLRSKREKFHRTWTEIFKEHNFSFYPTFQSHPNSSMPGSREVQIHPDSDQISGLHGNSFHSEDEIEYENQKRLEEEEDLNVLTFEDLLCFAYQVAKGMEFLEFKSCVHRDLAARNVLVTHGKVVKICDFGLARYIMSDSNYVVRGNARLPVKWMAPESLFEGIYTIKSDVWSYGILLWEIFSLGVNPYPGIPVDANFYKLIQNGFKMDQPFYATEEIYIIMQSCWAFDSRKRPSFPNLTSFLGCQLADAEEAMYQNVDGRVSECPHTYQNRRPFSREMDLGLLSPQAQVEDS
In short: as §1

SMILES: N#Cc1cc(-c2cnc3[nH]cc(-c4ccc5ncn(C6CCCNC6)c5c4)c3c2)ccc1F (stereo not shown) [P-208, 2-fluoro-5-[3-[3-(3-piperidyl)benzimidazol-5-yl]-1H-pyrrolo[2,3-b]pyridin-5-yl]benzonitrile]
- IC50 [1]: 0.0001 to 1 µM
- IC50 [2]: 0.0001 to 1 µM

SMILES: COc1ncc(-c2cnc3[nH]cc(-c4ccc5ncn(C(C)(C)C)c5c4)c3c2)cn1 [P-265, 1-(tert-butyl)-6-(5-(2-methoxypyrimidin-5-yl)-1H-pyrrolo[2,3-b]pyridin-3-yl)-1H-benzo[d]imidazole]
- IC50 [1]: 0.0001 to 1 µM
- IC50 [2]: 0.0001 to 1 µM

SMILES: CN(c1cccc(-c2cnc3[nH]cc(-c4ccc5ncn(C)c5c4)c3c2)c1)S(C)(=O)=O [P-120, N-methyl-N-[3-[3-(3-methylbenzimidazol-5-yl)-1H-pyrrolo[2,3-b]pyridin-5-yl]phenyl]methanesulfonamide]
- IC50 [1]: 0.0001 to 1 µM
- IC50 [2]: 0.0001 to 1 µM

SMILES: COc1cnc2[nH]cc(-c3ccc4ncn(-c5ccc(Cl)cc5)c4c3)c2c1 [P-104, 1-(4-chlorophenyl)-6-(5-methoxy-1H-pyrrolo[2,3-b]pyridin-3-yl)benzimidazole]
- IC50 [1]: 0.0001 to 1 µM
- IC50 [2]: 0.0001 to 1 µM

SMILES: CC(C)(C)n1cnc2ccc(-c3c[nH]c4ncc(C#Cc5cccc(C#N)c5)cc34)cc21 [P-242, 3-[2-[3-(3-tert-butylbenzimidazol-5-yl)-1H-pyrrolo[2,3-b]pyridin-5-yl]ethynyl]benzonitrile]
- IC50 [1]: 0.0001 to 1 µM
- IC50 [2]: 0.0001 to 1 µM

SMILES: CC(C)(CO)n1cnc2ccc(-c3c[nH]c4ncc(-c5cccc(NS(C)(=O)=O)c5)nc34)cc21 [P-115, N-[3-[7-[3-(2-hydroxy-1,1-dimethyl-ethyl)benzimidazol-5-yl]-5H-pyrrolo[2,3-b]pyrazin-2-yl]phenyl]methanesulfonamide]
- IC50 [1]: 0.0001 to 1 µM
- IC50 [2]: 0.0001 to 1 µM

SMILES: COc1cc(-c2cnc3[nH]cc(-c4ccc5ncn(C6CCCN(C)C6)c5c4)c3n2)ccn1 (stereo not shown) [P-271, 2-(2-methoxy-4-pyridyl)-7-[3-(1-methyl-3-piperidyl)benzimidazol-5-yl]-5H-pyrrolo[2,3-b]pyrazine]
- IC50 [1]: 0.0001 to 1 µM
- IC50 [2]: 0.0001 to 1 µM

SMILES: CC(C)(C)n1cnc2ccc(-c3c[nH]c4ncc(-c5cccc(S(=O)(=O)N6CCCC6)c5)cc34)cc21 [P-220, 1-tert-butyl-6-[5-(3-pyrrolidin-1-ylsulfonylphenyl)-1H-pyrrolo[2,3-b]pyridin-3-yl]benzimidazole]
- IC50 [1]: 0.0001 to 1 µM
- IC50 [2]: 0.0001 to 1 µM

SMILES: CC(C)n1cnc2ccc(-c3c[nH]c4ncc(-c5cnn(C(F)F)c5)cc34)cc21 [P-267, 5-[1-(difluoromethyl)pyrazol-4-yl]-3-(3-isopropylbenzimidazol-5-yl)-1H-pyrrolo[2,3-b]pyridine]
- IC50 [1]: 0.0001 to 1 µM
- IC50 [2]: 0.0001 to 1 µM

SMILES: CC(C)S(=O)(=O)Nc1cccc(-c2cnc3[nH]cc(-c4ccc5ncn(C6CCCNC6)c5c4)c3c2)c1 (stereo not shown) [P-215, N-[3-[3-[3-(3-piperidyl)benzimidazol-5-yl]-1H-pyrrolo[2,3-b]pyridin-5-yl]phenyl]propane-2-sulfonamide]
- IC50 [1]: 0.0001 to 1 µM
- IC50 [2]: 0.0001 to 1 µM

SMILES: O=S1(=O)CCCCN1c1cccc(-c2cnc3[nH]cc(-c4ccc5ncn(C6CCCNC6)c5c4)c3n2)c1 (stereo not shown) [P-253, 2-[3-[7-[3-(3-piperidyl)benzimidazol-5-yl]-5H-pyrrolo[2,3-b]pyrazin-2-yl]phenyl]thiazinane 1,1-dioxide]
- IC50 [1]: 0.0001 to 1 µM
- IC50 [2]: 0.0001 to 1 µM

SMILES: O=C(Nc1cccc(F)c1)c1cnc2[nH]cc(-c3ccc4ncn(C5CCCNC5)c4c3)c2c1 (stereo not shown) [P-178, N-(3-fluorophenyl)-3-[3-(3-piperidyl)benzimidazol-5-yl]-1H-pyrrolo[2,3-b]pyridine-5-carboxamide]
- IC50 [1]: 0.0001 to 1 µM
- IC50 [2]: 0.0001 to 1 µM

SMILES: c1cc(-c2cnc3[nH]cc(-c4ccc5ncn(C6CCCNC6)c5c4)c3c2)cc(N2CCOCC2)n1 (stereo not shown) [P-223, 4-[4-[3-[3-(3-piperidyl)benzimidazol-5-yl]-1H-pyrrolo[2,3-b]pyridin-5-yl]-2-pyridyl]morpholine]
- IC50 [1]: 0.0001 to 1 µM
- IC50 [2]: 0.0001 to 1 µM

SMILES: COc1ncc(-c2cnc3[nH]cc(-c4ccc5ncn(C(C)(C)C)c5c4)c3n2)cn1 [P-263, 7-(3-tert-butylbenzimidazol-5-yl)-2-(2-methoxypyrimidin-5-yl)-5H-pyrrolo[2,3-b]pyrazine]
- IC50 [1]: 0.0001 to 1 µM
- IC50 [2]: 0.0001 to 1 µM

SMILES: CC(C)(C)n1cnc2ccc(-c3c[nH]c4ncc(-c5cccc(N6CCCS6(=O)=O)c5)nc34)cc21 [P-231, 2-[3-[7-(3-tert-butylbenzimidazol-5-yl)-5H-pyrrolo[2,3-b]pyrazin-2-yl]phenyl]-1,2-thiazolidine 1,1-dioxide]
- IC50 [1]: 0.0001 to 1 µM
- IC50 [2]: 0.0001 to 1 µM

SMILES: CC(C)(C)n1cnc2ccc(-c3c[nH]c4ncc(-c5cccc(N6CCCCS6(=O)=O)c5)nc34)cc21 [P-227, 2-[3-[7-(3-tert-butylbenzimidazol-5-yl)-5H-pyrrolo[2,3-b]pyrazin-2-yl]phenyl]thiazinane 1,1-dioxide]
- IC50 [1]: 0.0001 to 1 µM
- IC50 [2]: 0.0001 to 1 µM

SMILES: CC(C)(C)n1cnc2ccc(-c3c[nH]c4ncc(-c5cccc(S(=O)(=O)N6CCCC6)c5)nc34)cc21 [P-229, 7-(3-tert-butylbenzimidazol-5-yl)-2-(3-pyrrolidin-1-ylsulfonylphenyl)-5H-pyrrolo[2,3-b]pyrazine]
- IC50 [1]: 0.0001 to 1 µM
- IC50 [2]: 0.0001 to 1 µM

SMILES: CC(C)(C)n1cnc2ccc(-c3c[nH]c4ncc(-c5cnn(CC(F)(F)F)c5)cc34)cc21 [P-252, 1-tert-butyl-6-[5-[1-(2,2,2-trifluoroethyl)pyrazol-4-yl]-1H-pyrrolo[2,3-b]pyridin-3-yl]benzimidazole]
- IC50 [1]: 0.0001 to 1 µM
- IC50 [2]: 0.0001 to 1 µM

SMILES: CC(C)S(=O)(=O)Nc1cccc(-c2cnc3[nH]cc(-c4ccc5ncn(C(C)(C)C)c5c4)c3n2)c1 [P-232, N-[3-[7-(3-tert-butylbenzimidazol-5-yl)-5H-pyrrolo[2,3-b]pyrazin-2-yl]phenyl]propane-2-sulfonamide]
- IC50 [1]: 0.0001 to 1 µM
- IC50 [2]: 0.0001 to 1 µM

SMILES: Cn1cnc2ccc(-c3c[nH]c4ncc(-c5cnn(CC(F)(F)F)c5)cc34)cc21 [P-175, 1-methyl-6-[5-[1-(2,2,2-trifluoroethyl)pyrazol-4-yl]-1H-pyrrolo[2,3-b]pyridin-3-yl]benzimidazole]
- IC50 [1]: 0.0001 to 1 µM
- IC50 [2]: 0.0001 to 1 µM

SMILES: CC(C)(C)n1cnc2ccc(-c3c[nH]c4ncc(-c5cccc(N6CCOCC6)c5)nc34)cc21 [P-226, 4-[3-[7-(3-tert-butylbenzimidazol-5-yl)-5H-pyrrolo[2,3-b]pyrazin-2-yl]phenyl]morpholine]
- IC50 [1]: 0.0001 to 1 µM
- IC50 [2]: 0.0001 to 1 µM

SMILES: CCCS(=O)(=O)Nc1cccc(-c2cnc3[nH]cc(-c4ccc5ncn(C(C)(C)C)c5c4)c3c2)c1 [P-216, N-[3-[3-(3-tert-butylbenzimidazol-5-yl)-1H-pyrrolo[2,3-b]pyridin-5-yl]phenyl]propane-1-sulfonamide]
- IC50 [1]: 0.0001 to 1 µM
- IC50 [2]: 0.0001 to 1 µM

SMILES: CC(C)n1cnc2ccc(-c3c[nH]c4ncc(-c5cnn(CC(F)(F)F)c5)cc34)cc21 [P-268, 1-isopropyl-6-[5-[1-(2,2,2-trifluoroethyl)pyrazol-4-yl]-1H-pyrrolo[2,3-b]pyridin-3-yl]benzimidazole]
- IC50 [1]: 0.0001 to 1 µM
- IC50 [2]: 0.0001 to 1 µM
